Among the data in publication PMC10528299, “Targeting FAK/PYK2 with SJP1602 for Anti-Tumor Activity in Triple-Negative Breast Cancer” (Current Issues in Molecular Biology, 2023) are remaining activity values, retold here.

Holding throughout (test): Eurofins kinase profiling
What all share (type): biochemical

Assay [1] has as its target T1, CDK5/p35(h) (Homo sapiens, UniProt Q00535).
T1 construct: purchased Eurofins KinaseProfiler
The following applies: read-out: residual kinase activity CDK5/p35(h). Summed up:
(§1)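 Radiometric detection, with radiolabeled phosphate as substrate, gave the kinase activity after each enzyme was incubated with 1 µM test compound. The run belonged to a 110-assay profiling panel.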

Assay [2] deals with T2, CHK1(h) (Homo sapiens, UniProt O14757).
T2 construct: purchased Eurofins KinaseProfiler
T2 sequence (O14757 1-476): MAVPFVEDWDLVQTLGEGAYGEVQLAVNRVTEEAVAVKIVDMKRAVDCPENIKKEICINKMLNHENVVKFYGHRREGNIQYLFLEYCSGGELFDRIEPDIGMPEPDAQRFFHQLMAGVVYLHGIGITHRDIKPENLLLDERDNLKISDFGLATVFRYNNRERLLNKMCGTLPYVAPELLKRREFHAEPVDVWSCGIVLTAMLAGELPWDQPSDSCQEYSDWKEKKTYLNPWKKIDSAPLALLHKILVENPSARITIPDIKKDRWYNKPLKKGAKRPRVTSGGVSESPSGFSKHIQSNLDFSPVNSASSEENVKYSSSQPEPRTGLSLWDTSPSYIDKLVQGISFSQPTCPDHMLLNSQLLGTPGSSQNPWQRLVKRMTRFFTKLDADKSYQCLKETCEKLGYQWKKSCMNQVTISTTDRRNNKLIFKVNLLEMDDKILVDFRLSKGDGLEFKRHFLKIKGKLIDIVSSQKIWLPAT
The settings on record: read-out: residual kinase activity CHK1(h). Summed up: as §1

Assay [3] addresses T3, CK1γ2(h) (Homo sapiens, UniProt P78368).
T3 construct: purchased Eurofins KinaseProfiler
The settings on record: read-out: residual kinase activity CK1γ2(h). Summed up: as §1

Assay [4] addresses T4, CSK(h) (Homo sapiens, UniProt P41240).
T4 construct: purchased Eurofins KinaseProfiler
The following applies: read-out: residual kinase activity CSK(h). Summed up:
as §1

Assay [5] deals with T5, DDR2(h) (Homo sapiens, UniProt Q16832).
T5 construct: purchased Eurofins KinaseProfiler
T5 sequence (Q16832 22-855): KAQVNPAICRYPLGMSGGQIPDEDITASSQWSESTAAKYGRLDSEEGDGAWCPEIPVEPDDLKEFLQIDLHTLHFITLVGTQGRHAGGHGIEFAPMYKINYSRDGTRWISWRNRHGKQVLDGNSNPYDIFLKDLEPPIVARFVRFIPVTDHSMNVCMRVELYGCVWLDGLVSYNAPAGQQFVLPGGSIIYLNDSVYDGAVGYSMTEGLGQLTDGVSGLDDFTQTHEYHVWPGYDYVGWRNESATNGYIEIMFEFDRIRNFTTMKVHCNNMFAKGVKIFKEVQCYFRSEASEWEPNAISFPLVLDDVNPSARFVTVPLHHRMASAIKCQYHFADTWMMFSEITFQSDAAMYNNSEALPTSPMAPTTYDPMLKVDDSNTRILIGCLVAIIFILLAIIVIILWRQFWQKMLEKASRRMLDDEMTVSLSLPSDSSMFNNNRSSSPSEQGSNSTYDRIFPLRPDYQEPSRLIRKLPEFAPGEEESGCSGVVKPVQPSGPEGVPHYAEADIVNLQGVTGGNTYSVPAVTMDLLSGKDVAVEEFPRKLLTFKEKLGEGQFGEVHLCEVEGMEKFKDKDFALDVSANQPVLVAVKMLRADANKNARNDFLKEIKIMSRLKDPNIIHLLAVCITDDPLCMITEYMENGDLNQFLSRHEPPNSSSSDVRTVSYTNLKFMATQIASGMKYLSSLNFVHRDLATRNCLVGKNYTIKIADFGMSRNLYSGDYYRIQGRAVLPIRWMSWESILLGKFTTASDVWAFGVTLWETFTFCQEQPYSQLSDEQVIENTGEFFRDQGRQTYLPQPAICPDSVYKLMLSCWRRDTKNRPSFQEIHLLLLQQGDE
The settings on record: read-out: residual kinase activity DDR2(h). The gist of the method:
as §1

The target of assay [6] is T6, EphA2(h) (Homo sapiens, UniProt P29317).
T6 construct: purchased Eurofins KinaseProfiler
The following applies: read-out: residual kinase activity EphA2(h). The gist of the method: as §1

Assay [7] has as its target T7, ErbB4(h) (Homo sapiens, UniProt Q15303).
T7 construct: purchased Eurofins KinaseProfiler
The settings on record: read-out: residual kinase activity ErbB4(h). Summed up: as §1

For assay [8], the target named is T8, Flt1(h) (Homo sapiens, UniProt P17948).
T8 construct: purchased Eurofins KinaseProfiler
T8 sequence (P17948 27-1338): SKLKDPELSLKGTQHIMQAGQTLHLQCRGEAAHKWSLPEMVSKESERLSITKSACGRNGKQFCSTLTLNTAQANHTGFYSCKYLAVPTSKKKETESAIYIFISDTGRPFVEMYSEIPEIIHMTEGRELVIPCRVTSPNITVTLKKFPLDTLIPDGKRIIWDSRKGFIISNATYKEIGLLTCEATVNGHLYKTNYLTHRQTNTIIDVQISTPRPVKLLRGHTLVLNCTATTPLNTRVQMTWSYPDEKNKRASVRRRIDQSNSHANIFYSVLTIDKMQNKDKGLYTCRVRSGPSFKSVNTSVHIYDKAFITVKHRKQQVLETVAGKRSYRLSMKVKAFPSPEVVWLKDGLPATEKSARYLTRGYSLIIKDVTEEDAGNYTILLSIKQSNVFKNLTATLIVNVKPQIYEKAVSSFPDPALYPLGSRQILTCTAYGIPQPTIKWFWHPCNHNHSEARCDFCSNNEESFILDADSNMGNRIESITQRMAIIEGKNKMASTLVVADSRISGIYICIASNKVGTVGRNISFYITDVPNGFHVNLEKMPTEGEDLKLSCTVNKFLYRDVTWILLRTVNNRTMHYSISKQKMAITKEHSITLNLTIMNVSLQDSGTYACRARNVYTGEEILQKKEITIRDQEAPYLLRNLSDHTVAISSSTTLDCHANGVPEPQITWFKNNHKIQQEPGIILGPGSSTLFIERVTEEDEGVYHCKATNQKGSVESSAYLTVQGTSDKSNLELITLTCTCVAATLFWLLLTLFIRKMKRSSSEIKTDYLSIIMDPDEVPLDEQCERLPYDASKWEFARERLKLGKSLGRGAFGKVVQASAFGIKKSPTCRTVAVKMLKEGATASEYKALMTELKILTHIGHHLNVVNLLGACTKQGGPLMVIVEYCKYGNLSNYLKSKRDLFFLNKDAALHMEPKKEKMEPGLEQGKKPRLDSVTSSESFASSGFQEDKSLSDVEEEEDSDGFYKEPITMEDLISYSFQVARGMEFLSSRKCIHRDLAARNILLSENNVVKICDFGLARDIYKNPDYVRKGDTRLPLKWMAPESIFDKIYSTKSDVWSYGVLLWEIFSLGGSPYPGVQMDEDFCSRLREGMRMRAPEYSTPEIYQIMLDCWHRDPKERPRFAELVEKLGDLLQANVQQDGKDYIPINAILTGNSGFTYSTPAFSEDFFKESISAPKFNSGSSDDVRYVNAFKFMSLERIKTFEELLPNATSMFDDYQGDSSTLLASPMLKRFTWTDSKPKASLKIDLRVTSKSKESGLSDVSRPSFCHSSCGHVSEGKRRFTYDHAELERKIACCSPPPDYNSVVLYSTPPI
The following applies: read-out: residual kinase activity Flt1(h). The gist of the method: as §1

Assay [9] deals with T9, Lck(h) (Homo sapiens, UniProt P06239).
T9 construct: purchased Eurofins KinaseProfiler
T9 sequence (P06239 whole entry): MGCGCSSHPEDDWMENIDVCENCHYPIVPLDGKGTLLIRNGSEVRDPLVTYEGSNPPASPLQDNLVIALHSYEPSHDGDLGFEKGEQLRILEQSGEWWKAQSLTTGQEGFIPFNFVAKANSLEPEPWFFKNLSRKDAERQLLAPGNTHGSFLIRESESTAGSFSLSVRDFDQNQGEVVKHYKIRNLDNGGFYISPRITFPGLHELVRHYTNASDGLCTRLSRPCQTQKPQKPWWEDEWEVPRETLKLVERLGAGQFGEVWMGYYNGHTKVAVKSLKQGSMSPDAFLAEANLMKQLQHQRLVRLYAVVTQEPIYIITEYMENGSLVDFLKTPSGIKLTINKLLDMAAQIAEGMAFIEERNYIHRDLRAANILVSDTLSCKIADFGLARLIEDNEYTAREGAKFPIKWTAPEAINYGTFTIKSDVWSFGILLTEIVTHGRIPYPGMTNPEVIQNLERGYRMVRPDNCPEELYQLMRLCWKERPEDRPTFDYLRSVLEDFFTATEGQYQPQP
The following applies: read-out: residual kinase activity Lck(h). The gist of the method:
as §1

The target in assay [10] is T10, PDK1(h) (Homo sapiens, UniProt O15530).
T10 construct: purchased Eurofins KinaseProfiler
T10 sequence (O15530 1-556): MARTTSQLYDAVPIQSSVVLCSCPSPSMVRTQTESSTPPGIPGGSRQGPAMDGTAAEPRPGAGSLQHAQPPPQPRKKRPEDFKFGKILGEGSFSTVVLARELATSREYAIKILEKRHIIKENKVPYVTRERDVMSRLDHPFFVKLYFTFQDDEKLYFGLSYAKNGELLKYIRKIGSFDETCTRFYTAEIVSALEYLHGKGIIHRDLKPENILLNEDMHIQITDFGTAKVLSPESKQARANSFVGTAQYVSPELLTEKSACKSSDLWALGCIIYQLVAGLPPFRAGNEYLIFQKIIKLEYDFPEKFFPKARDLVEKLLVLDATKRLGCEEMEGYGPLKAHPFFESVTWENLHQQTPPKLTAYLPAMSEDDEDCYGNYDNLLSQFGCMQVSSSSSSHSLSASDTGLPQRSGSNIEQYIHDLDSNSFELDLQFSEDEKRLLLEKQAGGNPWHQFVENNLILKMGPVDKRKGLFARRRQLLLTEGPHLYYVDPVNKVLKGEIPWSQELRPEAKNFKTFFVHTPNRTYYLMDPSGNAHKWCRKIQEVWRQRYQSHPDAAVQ
The following applies: read-out: residual kinase activity PDK1(h). Summed up: as §1

In assay [11] the target is T11, PI3 Kinase (p110a/p85a)(h) (Homo sapiens, UniProt P42336).
T11 construct: purchased Eurofins KinaseProfiler
The following applies: read-out: residual kinase activity PI3 Kinase (p110a/p85a)(h). Summed up: as §1

The target in assay [12] is T12, PI3 Kinase (p120g)(h) (Homo sapiens, UniProt P48736).
T12 construct: purchased Eurofins KinaseProfiler
T12 sequence (P48736 whole entry): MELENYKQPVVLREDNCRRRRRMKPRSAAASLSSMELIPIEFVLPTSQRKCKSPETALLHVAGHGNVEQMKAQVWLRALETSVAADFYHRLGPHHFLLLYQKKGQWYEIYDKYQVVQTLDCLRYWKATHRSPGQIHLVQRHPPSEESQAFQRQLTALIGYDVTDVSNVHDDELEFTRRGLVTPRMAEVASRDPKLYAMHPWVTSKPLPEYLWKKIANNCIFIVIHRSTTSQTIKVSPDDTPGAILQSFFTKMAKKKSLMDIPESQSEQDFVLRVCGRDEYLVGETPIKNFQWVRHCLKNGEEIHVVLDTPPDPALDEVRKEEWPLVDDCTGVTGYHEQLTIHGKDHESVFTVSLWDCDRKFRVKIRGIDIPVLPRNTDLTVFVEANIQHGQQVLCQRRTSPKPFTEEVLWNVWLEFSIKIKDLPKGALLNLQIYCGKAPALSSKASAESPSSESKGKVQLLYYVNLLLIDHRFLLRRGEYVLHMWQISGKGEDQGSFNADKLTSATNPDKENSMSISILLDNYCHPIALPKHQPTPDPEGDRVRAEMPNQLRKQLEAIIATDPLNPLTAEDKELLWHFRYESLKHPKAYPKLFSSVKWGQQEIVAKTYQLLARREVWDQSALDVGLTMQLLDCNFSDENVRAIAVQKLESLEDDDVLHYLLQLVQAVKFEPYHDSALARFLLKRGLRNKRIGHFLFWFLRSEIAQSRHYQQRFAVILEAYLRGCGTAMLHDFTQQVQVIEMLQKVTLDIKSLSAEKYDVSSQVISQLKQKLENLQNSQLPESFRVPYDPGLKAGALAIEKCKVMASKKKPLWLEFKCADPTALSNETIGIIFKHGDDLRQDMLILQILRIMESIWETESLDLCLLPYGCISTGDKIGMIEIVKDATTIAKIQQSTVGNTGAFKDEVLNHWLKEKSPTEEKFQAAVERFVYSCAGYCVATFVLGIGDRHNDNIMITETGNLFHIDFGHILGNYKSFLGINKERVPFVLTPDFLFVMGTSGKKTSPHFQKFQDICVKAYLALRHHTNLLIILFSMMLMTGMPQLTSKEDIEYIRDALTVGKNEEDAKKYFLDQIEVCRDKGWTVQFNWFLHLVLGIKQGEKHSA
The settings on record: read-out: residual kinase activity PI3 Kinase (p120g)(h). Summed up:
as §1

T4 sequence (P41240 whole entry): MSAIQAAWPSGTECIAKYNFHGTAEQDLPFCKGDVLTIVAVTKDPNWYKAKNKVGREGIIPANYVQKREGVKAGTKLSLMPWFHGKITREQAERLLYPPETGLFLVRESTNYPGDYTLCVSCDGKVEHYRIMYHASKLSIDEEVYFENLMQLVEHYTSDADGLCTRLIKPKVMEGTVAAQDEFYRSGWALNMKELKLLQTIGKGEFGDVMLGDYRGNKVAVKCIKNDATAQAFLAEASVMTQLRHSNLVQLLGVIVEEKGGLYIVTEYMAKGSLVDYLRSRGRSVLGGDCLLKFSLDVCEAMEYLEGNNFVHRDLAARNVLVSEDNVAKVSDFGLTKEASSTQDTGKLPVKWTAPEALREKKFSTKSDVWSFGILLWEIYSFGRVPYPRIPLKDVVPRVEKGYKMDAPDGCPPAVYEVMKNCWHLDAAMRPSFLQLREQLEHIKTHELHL
T3 sequence (P78368 whole entry): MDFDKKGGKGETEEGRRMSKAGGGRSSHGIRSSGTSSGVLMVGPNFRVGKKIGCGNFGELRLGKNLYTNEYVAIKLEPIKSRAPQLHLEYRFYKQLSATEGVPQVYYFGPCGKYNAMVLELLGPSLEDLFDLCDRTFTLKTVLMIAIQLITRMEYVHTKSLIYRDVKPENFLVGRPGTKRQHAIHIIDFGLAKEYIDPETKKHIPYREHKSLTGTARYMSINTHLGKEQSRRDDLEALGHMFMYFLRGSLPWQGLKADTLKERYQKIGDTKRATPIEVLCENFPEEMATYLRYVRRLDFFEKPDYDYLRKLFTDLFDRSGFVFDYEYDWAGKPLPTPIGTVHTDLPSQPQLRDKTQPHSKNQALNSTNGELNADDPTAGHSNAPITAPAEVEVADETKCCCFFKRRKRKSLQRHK
T7 sequence (Q15303 26-1308): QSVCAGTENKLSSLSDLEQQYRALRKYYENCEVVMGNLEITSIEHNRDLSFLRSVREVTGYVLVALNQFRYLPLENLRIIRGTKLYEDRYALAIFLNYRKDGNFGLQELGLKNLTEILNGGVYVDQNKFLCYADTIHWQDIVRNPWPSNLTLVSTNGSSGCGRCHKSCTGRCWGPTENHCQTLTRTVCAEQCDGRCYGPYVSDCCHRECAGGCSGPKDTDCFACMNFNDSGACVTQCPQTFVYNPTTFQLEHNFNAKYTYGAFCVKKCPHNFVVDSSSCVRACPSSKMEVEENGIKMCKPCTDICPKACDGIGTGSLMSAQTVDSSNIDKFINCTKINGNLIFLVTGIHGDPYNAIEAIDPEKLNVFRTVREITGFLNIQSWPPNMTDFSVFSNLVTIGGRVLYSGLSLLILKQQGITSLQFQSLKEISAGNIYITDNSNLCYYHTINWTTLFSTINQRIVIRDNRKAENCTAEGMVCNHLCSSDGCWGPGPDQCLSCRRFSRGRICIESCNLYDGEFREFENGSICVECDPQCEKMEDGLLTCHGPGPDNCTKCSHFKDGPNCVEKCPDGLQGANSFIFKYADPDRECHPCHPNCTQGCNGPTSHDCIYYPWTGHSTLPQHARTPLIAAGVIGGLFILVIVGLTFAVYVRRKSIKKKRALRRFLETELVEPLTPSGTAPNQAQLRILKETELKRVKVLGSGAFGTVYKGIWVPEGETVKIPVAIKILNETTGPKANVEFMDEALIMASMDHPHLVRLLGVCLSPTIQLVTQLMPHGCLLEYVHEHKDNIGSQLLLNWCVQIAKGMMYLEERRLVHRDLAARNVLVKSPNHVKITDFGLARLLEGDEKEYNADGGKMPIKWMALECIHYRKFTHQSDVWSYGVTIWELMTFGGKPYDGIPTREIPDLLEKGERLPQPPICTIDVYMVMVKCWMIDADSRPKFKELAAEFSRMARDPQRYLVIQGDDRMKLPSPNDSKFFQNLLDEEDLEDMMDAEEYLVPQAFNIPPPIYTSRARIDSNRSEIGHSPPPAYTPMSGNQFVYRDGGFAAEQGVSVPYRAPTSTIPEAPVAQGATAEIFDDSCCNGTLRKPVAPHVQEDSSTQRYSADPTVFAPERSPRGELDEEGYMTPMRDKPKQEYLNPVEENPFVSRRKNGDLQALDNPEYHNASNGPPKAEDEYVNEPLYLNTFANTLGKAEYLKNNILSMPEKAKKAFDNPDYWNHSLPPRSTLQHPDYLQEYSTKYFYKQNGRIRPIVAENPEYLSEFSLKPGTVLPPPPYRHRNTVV

With `CNC(=O)c1cccc(C)c1Nc1nc(Nc2ccc(N3CCN(C4C5CC6CC4CC(O)(C6)C5)CC3)cc2OC)ncc1C(F)(F)F` (stereo not drawn) [SJP1602, 2-((2-((4-(4-((2s,5r)-5-hydroxyadamantan-2-yl)piperazin-1-yl)-2-methoxyphenyl)amino)-5-(trifluoromethyl)pyrimidin-4-yl)amino)-N,3-dimethylbenzamide], the remaining activity at 1 µM in assay [1] is 84%; in [2], 62%; in assay [3], 101%; in assay [4], 83%; in assay [5], 102%; in assay [6] it was 105%. The remaining activity at 1 µM in assay [7] was 99%; in [8], 106%; in [9], 63%; in assay [10], 102%; in assay [11], 104%; in [12], 85%.
With `CNC(=O)c1ccc(Nc2ncc(C(F)(F)F)c(NCc3nccnc3N(C)S(C)(=O)=O)n2)cc1` [VS-6063, Defactinib], the remaining activity at 1 µM in assay [1] is 10%; in assay [2] it was 58%; in [3], 64%; in [4] it was 88%; in [5], 94%; in assay [6], 91%. The remaining activity at 1 µM in assay [7] is 104%; in assay [8], 21%; in assay [9], 30%; in assay [10] it was 66%; in [11], 103%; in assay [12], 104%.
On to `CONC(=O)c1ccccc1Nc1cc(Nc2cc(C)nn2C(C)C)ncc1Cl` [GSK2256098], for which the remaining activity at 1 µM worked out at 94% in assay [1]; 85% in assay [2]; 97% in [3]; 92% in assay [4]; 138% in assay [5]; 92% in [6]. Further, the remaining activity at 1 µM is 81% in assay [7]; 94% in [8]; 110% in assay [9]; 117% in assay [10]; 83% in assay [11]; 101% in assay [12].
